In publication PMC4005666 (2014) one finds binding and Kd data, which are given here for 1 compound.

Molecules are shown by their SMILES.

Test [1] has as its system Natural E. coli TPP riboswitch (RNA, riboswitch) GGACUCGGGGUGCCCUUCUGCGUGAAGGCUGAGAAAUACCCGUAUCACCUGAUCUGGAUAAUGCCAGCGUAGGGAAGUUC
In words: native gel electrophoresis (mobility increase). Conditions: 1 mM Mg2+; 25 mM Tris, 192 mM glycine pH 8.3; 100 µM TPP.

The test system of test [2] is A1nU (RNA, riboswitch) GGACUCGGGGUGCCCUUCUGCGUGAAGGCUGAGAAAUACCCGUAUCACCUGAUCUGGAUAAUGCCAGCGUAGGGUAGUUC
As to the kind of experiment: ITC. As to conditions: 100 mM KCl, 10 mM MgCl2; 40 mM Hepes pH 7.5, 303.15 K.

Test [3] has as its system A2bC (RNA, riboswitch) GGACUCGGGGUGCCCUUCUGCGUGAAGGCUGAGAAAUACCCGUAUCCCCUGAUCUGGAUAAUGCCAGCGUAGGGAAGUUC
In words: ITC. Conditions: 100 mM KCl, 10 mM MgCl2; 40 mM Hepes pH 7.5, 303.15 K.

Test [4] has as its system A2bU (RNA, riboswitch) GGACUCGGGGUGCCCUUCUGCGUGAAGGCUGAGAAAUACCCGUAUCUCCUGAUCUGGAUAAUGCCAGCGUAGGGAAGUUC
In words: ITC. As to conditions: 100 mM KCl, 10 mM MgCl2; 40 mM Hepes pH 7.5, 303.15 K.

The test system of test [5] is ΔUC (RNA, riboswitch) GGACUCGGGGUGCCCUUCUGCGUGAAGGCUGAGAAAUACCCGUAACCUGAUCUGGAUAAUGCCAGCGUAGGGAAGUUC
As to the kind of experiment: ITC. Conditions: 100 mM KCl, 10 mM MgCl2; 40 mM Hepes pH 7.5, 303.15 K.

Test [6] concerns A1nC (RNA, riboswitch) GGACUCGGGGUGCCCUUCUGCGUGAAGGCUGAGAAAUACCCGUAUCACCUGAUCUGGAUAAUGCCAGCGUAGGGCAGUUC
As to the kind of experiment: ITC. As to conditions: 100 mM KCl, 10 mM MgCl2; 40 mM Hepes pH 7.5, 303.15 K; 150 µM TPP titrated into 15 µM RNA.

In test [7] the test system is Natural E. coli TPP riboswitch (RNA, riboswitch) GGACUCGGGGUGCCCUUCUGCGUGAAGGCUGAGAAAUACCCGUAUCACCUGAUCUGGAUAAUGCCAGCGUAGGGAAGUUC
As to the kind of experiment: ITC. Conditions: 100 mM KCl, 10 mM MgCl2; 40 mM Hepes pH 7.5, 303.15 K.

Test [8] has as its system A1nC (RNA, riboswitch) GGACUCGGGGUGCCCUUCUGCGUGAAGGCUGAGAAAUACCCGUAUCACCUGAUCUGGAUAAUGCCAGCGUAGGGCAGUUC
In words: native gel electrophoresis (mobility increase). As to conditions: 1 mM Mg2+; 25 mM Tris, 192 mM glycine pH 8.3; 100 µM TPP.

For test [9], the system named is A1bG (RNA, riboswitch) GGACUCGGGGUGCCCUUCUGCGUGAAGGCUGAGAAAUACCCGUGUCACCUGAUCUGGAUAAUGCCAGCGUAGGGAAGUUC
In words: ITC. As to conditions: 100 mM KCl, 10 mM MgCl2; 40 mM Hepes pH 7.5, 303.15 K.

As for `Cc1ncc(C[n+]2csc(CCOP(=O)(O)OP(=O)(O)O)c2C)c(N)n1`, the binding entry in test [1] is on record as “yes”; in [6], “no”; in test [8] it was “no”. The Kd in [2] was determined as 4070 ± 730 nM; in test [3], 850 ± 110 nM; in test [4], 550 ± 40 nM; in test [5], 280 ± 40 nM; in test [7], 230 ± 20 nM; in [9], 2440 ± 230 nM.

Usually Kd stands for a measure of binding affinity in units of concentration. A higher Kd goes with weaker binding.
